The text below walks through data of ChEMBL document CHEMBL1136564, “Sordaricin antifungal agents” (2003).

Molecules are shown by their SMILES. Values after ≈ are worked out from the molar mass of the structure shown.

One assay concerns Nakaseomyces glabratus. Briefly: Minimum inhibitory concentration required to inhibit 90 to 100% visible growth of Candida glabrata. The format is functional.
In a further assay the test system is Candida albicans. In words: Minimum inhibitory concentration to inhibit 90 to 100% visible growth of Candida albicans. Format: functional.

Usually MIC stands for the smallest concentration in the dilution series that meets the test's criterion for growth inhibition. In the case of `CC(C)C1=CC2CC3(C=O)C4CC[C@@H](C)C4CC2(CCOC(=O)c2ccc4[nH]cnc4c2)C13C(=O)O` (stereo not given in full), the MIC in the assay with Nakaseomyces glabratus and with Candida albicans was above 128 µg/mL each time. On to `CC(C)C1=CC2CC3(C=O)C4CC[C@@H](C)C4CC2(CCOC(=O)CCNC(=O)OC(C)(C)C)C13C(=O)O` (stereo not given in full), for which the MIC against Nakaseomyces glabratus is above 128 µg/mL; in the assay with Candida albicans, 64 µg/mL (≈ 124 µM). As to `CC(C)C1=CC2CC3(C=O)C4CC[C@@H](C)C4CC2(CCOC(=O)C2CCCCC2)C13C(=O)O` (stereo not given in full), the MIC in the assay on Nakaseomyces glabratus is 8 µg/mL (≈ 17.5 µM); in the assay on Candida albicans it was below 0.06 µg/mL. The corresponding values for `CCCCCCCCCCCCCCCCC(=O)C12C[C@@H]3[C@H](C)CC[C@H]3C3(C=O)CC1C=C(C(C)C)[C@@]23C(=O)O` are above 128 µg/mL and above 128 µg/mL.

As to `CC(C)C1=CC2CC3(C=O)C4CC[C@@H](C)C4CC2(CCOC(=O)c2nccc4ccccc24)C13C(=O)O` (stereo not given in full), the MIC against Nakaseomyces glabratus and in the assay on Candida albicans was above 128 µg/mL each time. The compound `CC(C)C1=CC2CC3(C=O)C4CC[C@@H](C)C4CC2(CCOC(=O)Cc2c[nH]c4ccccc24)C13C(=O)O` (stereo not given in full) came in with an MIC against Nakaseomyces glabratus above 128 µg/mL. Consider `CC(C)C1=CC2CC3(C=O)C4CC[C@@H](C)C4CC2(CCOC(=O)c2ccc(Br)cc2)C13C(=O)O` (stereo not given in full), for which the MIC in the assay with Nakaseomyces glabratus and in the assay with Candida albicans was above 128 µg/mL in each case.

For `CC(C)C1=CC2CC3(C=O)C4CC[C@@H](C)C4CC2(CCOC(=O)c2ccccc2)C13C(=O)O` (stereo not given in full), the MIC is above 128 µg/mL against Nakaseomyces glabratus and 32 µg/mL (≈ 71 µM) against Candida albicans. With `CC(C)C1=CC2CC3(C=O)C4CC[C@@H](C)C4CC2(CCOC(=O)Cc2ccc(Br)o2)C13C(=O)O` (stereo not given in full), the results for the MIC against Nakaseomyces glabratus and in the assay with Candida albicans were 64 µg/mL (≈ 120 µM) and 2 µg/mL (≈ 3.75 µM), respectively. Regarding `CC(C)C1=CC2CC3(C=O)[C@@H]4CC[C@@H](C)[C@H]4CC2(C(=O)CCc2ccccc2)[C@]13C(=O)O`, the values for the minimal inhibitory concentration (MIC) in the assay on Nakaseomyces glabratus and in the assay on Candida albicans were 8 µg/mL (≈ 18.4 µM) and 16 µg/mL (≈ 36.8 µM), respectively. The corresponding values for `CC(C)CCOCCC12CC3C(CC[C@H]3C)C3(C=O)CC1C=C(C(C)C)C32C(=O)O` (stereo not given in full) are 64 µg/mL (≈ 154 µM) and 2 µg/mL (≈ 4.8 µM).

Turning to `CC(C)C1=CC2CC3(C=O)C4CC[C@@H](C)C4CC2(CCOC(=O)C2CCN(C(=O)OC(C)(C)C)CC2)C13C(=O)O` (stereo not given in full), the results for the MIC against Nakaseomyces glabratus and with Candida albicans were above 128 µg/mL and 8 µg/mL (≈ 14.3 µM), respectively. On the same counts, the results for `CC(C)C1=CC2CC3(C=O)C4CC[C@@H](C)C4CC2(CCOC(=O)C2CCC2)C13C(=O)O` (stereo not given in full) are 8 µg/mL (≈ 18.7 µM) and 0.5 µg/mL (≈ 1.17 µM). With `CC(C)C1=CC2CC3(C=O)C4CC[C@@H](C)C4CC2(CCOC(=O)c2ccco2)C13C(=O)O` (stereo not given in full), the MIC is above 128 µg/mL against Nakaseomyces glabratus and 8 µg/mL (≈ 18.2 µM) in the assay on Candida albicans. The corresponding values for `CC(C)C1=CC2CC3(C=O)[C@@H]4CC[C@@H](C)[C@H]4CC2(C(O)C#Cc2ccccc2)[C@]13C(=O)O` (stereo not given in full) are 8 µg/mL (≈ 18.5 µM) and 0.25 µg/mL (≈ 0.578 µM). On the same counts, the results for `CC(C)C1=CC2CC3(C=O)C4CC[C@@H](C)C4CC2(CCOC(=O)c2cccn2C)C13C(=O)O` (stereo not given in full) are above 128 µg/mL and above 128 µg/mL. The corresponding values for `CC(C)C1=CC2CC3(C=O)C4CC[C@@H](C)C4CC2(CCOC(=O)CCN2CCCCC2)C13C(=O)O` (stereo not given in full) are above 128 µg/mL and above 128 µg/mL. As for `CC(C)C1=CC2CC3(C=O)C4CC[C@@H](C)C4CC2(CCOC(=O)c2ccc(F)cc2)C13C(=O)O` (stereo not given in full), the MIC was above 128 µg/mL in the assay on Nakaseomyces glabratus and 4 µg/mL (≈ 8.54 µM) against Candida albicans. The corresponding values for `CC(C)C1=CC2CC3(C=O)C4CC[C@@H](C)C4CC2(CCOC(=O)CNC(=O)OC(C)(C)C)C13C(=O)O` (stereo not given in full) are above 128 µg/mL and 128 µg/mL (≈ 254 µM). The corresponding values for `CC(C)C1=CC2CC3(C=O)C4CC[C@@H](C)C4CC2(CCOC(=O)CC(C)(C)C)C13C(=O)O` (stereo not given in full) are 4 µg/mL (≈ 9 µM) and below 0.06 µg/mL. The corresponding values for `CC(C)C1=CC2CC3(C=O)C4CC[C@@H](C)C4CC2(CCOC(=O)c2cnc4ccccc4c2)C13C(=O)O` (stereo not given in full) are above 128 µg/mL and 4 µg/mL (≈ 7.97 µM).

As for `CCCOc1ccc(C(=O)OCCC23CC4C(CC[C@H]4C)C4(C=O)CC2C=C(C(C)C)C43C(=O)O)cc1` (stereo not given in full), the MIC in the assay on Nakaseomyces glabratus was above 128 µg/mL; against Candida albicans, 128 µg/mL (≈ 252 µM). On the same counts, the results for `CC(C)C1=CC2CC3(C=O)C4CC[C@@H](C)C4CC2(CCOC(=O)c2ccc(C#N)cc2)C13C(=O)O` (stereo not given in full) are above 128 µg/mL and 8 µg/mL (≈ 16.8 µM). The corresponding values for `CC(C)C1=CC2CC3(C=O)C4CC[C@@H](C)C4CC2(CCOC(=O)c2ccc(Cl)nc2)C13C(=O)O` (stereo not given in full) are above 128 µg/mL and 4 µg/mL (≈ 8.23 µM).

With `C=CCCCCC(=O)OCCC12CC3C(CC[C@H]3C)C3(C=O)CC1C=C(C(C)C)C32C(=O)O` (stereo not given in full), the results for the MIC against Nakaseomyces glabratus and against Candida albicans were 8 µg/mL (≈ 17.5 µM) and below 0.06 µg/mL, respectively. On the same counts, the results for `CC(C)C1=CC2CC3(C=O)C4CC[C@@H](C)C4CC2(CCOC(=O)c2cc4ccccc4o2)C13C(=O)O` (stereo not given in full) are above 128 µg/mL and above 128 µg/mL.

In the case of `CC(C)C1=CC2CC3(C=O)C4CC[C@@H](C)C4CC2(CCOC(=O)[C@@H]2CCCN2C(=O)OC(C)(C)C)C13C(=O)O` (stereo not given in full), the MIC against Nakaseomyces glabratus is 128 µg/mL (≈ 235 µM); in the assay on Candida albicans, 16 µg/mL (≈ 29.4 µM). The corresponding values for `CSc1ccc(CC(=O)OCCC23CC4C(CC[C@H]4C)C4(C=O)CC2C=C(C(C)C)C43C(=O)O)cc1` (stereo not given in full) are above 128 µg/mL and 0.5 µg/mL (≈ 0.979 µM).
